# In patent publication US20220401458A1 (Glia, LLC, priority 2019, published 2022):
# Experiments:
# [1] = Serum total testosterone levels by competitive ELISA after twice daily topical administration to rat forehead; assay type: in vivo, male Sprague-Dawley rats; details: about 0.2% testosterone gel on shaved forehead twice daily for 14 days; serum 30 min after final application; one-way t-test p 0.08 (FIG. 1)
# Description: (§1) Hormone Assessment: Blood was collected, stored at 4° C. overnight and spun down to collect serum. Serum was analyzed for total testosterone levels (T) and luteinizing hormone (LH) levels by competitive ELISA using commercially available kits (Enzo Life Sciences). […] All samples were run in duplicate. For assessing LH, serum was diluted 1:2 and, due to high variance, samples were run in quadruplet. Obvious outlying values were omitted and data were averaged for the final analysis.
# [2] = test system: corneal mechanical thresholds; test: Corneal mechanical threshold in rat (surrogate for effect on dry eye); assay type: in vivo; details: p<0.01 (FIG. 5)
# Description: In the same animal model as used in Example 1, the corneal mechanical thresholds were determined as a surrogate for effect on dry eye.
# luteinizing hormone (LH) = test: Serum luteinizing hormone levels by competitive ELISA after topical administration to rat forehead; assay type: in vivo, male Sprague-Dawley rats; details: about 0.2% testosterone gel on forehead twice daily for 14 days; not statistically significant
# Description: as §1
# Parkinson's disease = test: Case study Patient: Parkinson's disease symptoms during topical testosterone gel to forehead; assay type: in vivo, human
# Description: They were diagnosed with Parkinson's in May 2016, confirmed October 2016 and April 2017 by independent DAT scans. Symptoms were bradykinesia of the legs, rigidity/stiffness, postural instability, specifically trouble with balance and falling as well as trouble with moving and walking, with peripheral neuropathy on both feet. Patient experienced no particular tremors. They also experienced chronic and increasing fatigue and loss of energy, as well as chronic head colds that would last about one week at a time every 6 weeks.
# (§2) In February 2019, symptoms continued and progressed. Patient was prescribed carbidopa/levodopa 25 mg/100 mg TID.
# [3] = Case study Patient: blood testosterone levels during topical testosterone gel to forehead; assay type: in vivo, human; details: for concentration at 2 months / concentration at 10 months: human, blood, topical, 0.14 mg
# Description: as §2
# Patient was maintained at these levels.
structure (smiles),measurement,setting,value
"C[C@]12CC[C@H]3[C@@H](CCC4=CC(=O)CC[C@@]43C)[C@@H]1CC[C@@H]2O [testosterone, 17β-hydroxyandrost-4-en-3-one]",increase in testosterone levels in the treated rats compared to controls,[1],42%
same,corneal mechanical threshold pressure compared with control,[2]; 60 minutes after administration to shaved head,significantly higher
same,corneal mechanical threshold pressure compared with control,[2]; 120 minutes after administration to shaved head,significantly higher
same,increase in serum luteinizing hormone levels,luteinizing hormone (LH),9%
same,increase of repetitions in exercises,"Parkinson's disease; 20-month period on gel, reported by physical trainer",about 25%
same,cognitive decline,Parkinson's disease; April 2020,no cognitive decline
same,sex drive compared to before start of testosterone treatment,Parkinson's disease; April 2020,increased sex drive
same,strength in knees and rest of body,Parkinson's disease; April 2020,increased strength
same,energy / ability to exercise,Parkinson's disease; after starting the testosterone gel 0.14 mg once daily to forehead,more energetic and was able to exercise
same,progression of Parkinson's disease,"Parkinson's disease; neurologist's conclusion June 2020, comparison with peer group",had not progressed
same,bioavailable testosterone,"[3]; 0.2% w/w gel once daily to forehead, 10 months",2.0 ng/dL
same,concentration at 2 months,"[3]; Free testosterone, 0.2% w/w gel once daily to forehead",0.08 pg/mL
same,concentration at 10 months,"[3]; Free testosterone, 0.2% w/w gel once daily to forehead, 10 months",1 pg/mL
same,concentration at 2 months,"[3]; Total testosterone, 0.14 mg in 0.07 g gel (0.2% w/w) once daily to forehead",140 pg/mL
same,concentration at 10 months,"[3]; Total testosterone, 0.2% w/w gel once daily to forehead, 10 months",210 pg/mL
